Columns and labels:
[1] = test system: luciferase expression in the liver; assay: Luciferase mRNA in vivo evaluation using lipid nanoparticle compositions (liver luciferase expression); set-up: species or system mice; conditions: LNP with FLuc mRNA, tail vein injection, liver measured 4 hours after administration; for Liver Luc @ 0.5 mg/kg (ng luc/g liver): 0.5 mg mRNA/kg
Experimental: A lipid of structure (I), DSPC, cholesterol and PEG-lipid were solubilized in ethanol at a molar ratio of 50:10:38.5:1.5 or 47.5:10:40.8:1.7. Lipid nanoparticles (LNP) were prepared at a total lipid to mRNA weight ratio of approximately 10:1 to 30:1. Briefly, the mRNA was diluted to 0.2 mg/mL in 10 to 50 mM citrate buffer, pH 4. Syringe pumps were used to mix the ethanolic lipid solution with the mRNA aqueous solution at a ratio of about 1:5 to 1:3 (vol/vol) with total flow rates above 15 mL/min. The ethanol was then removed and the external buffer replaced with PBS by dialysis. Finally, the lipid nanoparticles were filtered through a 0.2 μm pore sterile filter.
Studies were performed in 6-8 week old female C57BL/6 mice (Charles River) 8-10 week old CD-1 (Harlan) mice (Charles River) according to guidelines established by an institutional animal care committee (ACC) and the Canadian Council on Animal Care (CCAC). Varying doses of mRNA-lipid nanoparticle were systemically administered by tail vein injection and animals euthanized at a specific time point (e.g., 4 hours) post-administration. Liver and spleen were collected in pre-weighed tubes, weights determined, immediately snap frozen in liquid nitrogen and stored at −80° C. until processing for analysis.
For liver, approximately 50 mg was dissected for analyses in a 2 mL FastPrep tubes (MP Biomedicals, Solon Ohio). ¼″ ceramic sphere (MP Biomedicals) was added to each tube and 500 μL of Glo Lysis Buffer—GLB (Promega, Madison Wis.) equilibrated to room temperature was added to liver tissue. Liver tissues were homogenized with the FastPrep24 instrument (MP Biomedicals) at 2×6.0 m/s for 15 seconds. Homogenate was incubated at room temperature for 5 minutes prior to a 1:4 dilution in GLB and assessed using SteadyGlo Luciferase assay system (Promega). Specifically, 50 μL of diluted tissue homogenate was reacted with 50 μL of SteadyGlo substrate, shaken for 10 seconds followed by 5 minute incubation and then quantitated using a CentroXS^3 LB 960 luminometer (Berthold Technologies, Germany). The amount of protein assayed was determined by using the BCA protein assay kit (Pierce, Rockford, Ill.). Relative luminescence units (RLU) were then normalized to total μg protein assayed. To convert RLU to ng luciferase a standard curve was generated with QuantiLum Recombinant Luciferase (Promega). […]
Compounds of structure (I) were formulated using the following molar ratio: 47.5% cationic lipid/10% distearoylphosphatidylcholine (DSPC)/40.8% Cholesterol/1.7% PEG lipid (“PEG-DMA” 2-[2-(ω-methoxy (polyethyleneglycol2000)ethoxy]-N,N-ditetradecylacetamide). Relative activity was determined by measuring luciferase expression in the liver 4 hours following administration via tail vein injection as described in Example 1. […]

[2] = Determination of pKa of formulated lipids (TNS fluorescence assay in lipid nanoparticles); format: physicochemical; conditions: lipid formulated in LNP (lipid/DSPC/cholesterol/PEG-lipid); pH giving half-maximal TNS fluorescence
Text: As described elsewhere, the pKa of formulated lipids is correlated with the effectiveness of LNPs for delivery of nucleic acids (see Jayaraman et al, Angewandte Chemie, International Edition (2012), 51(34), 8529-8533; Semple et al, Nature Biotechnology 28, 172-176 (2010)). In some embodiments, the preferred range of pKa is ˜5 to ˜7. […] Lipid nanoparticles comprising compound of structure (I)/DSPC/cholesterol/PEG-lipid (50/10/38.5/1.5 or 47.5:10:40.8:1.7 mol %) in PBS at a concentration of 0.4 mM total lipid were prepared using the in-line process as described in Example 1. TNS was prepared as a 100 μM stock solution in distilled water. Vesicles were diluted to 24 μM lipid in 2 mL of buffered solutions containing 10 mM HEPES, 10 mM MES, 10 mM ammonium acetate, and 130 mM NaCl, where the pH ranged from 2.5 to 11. An aliquot of the TNS solution was added to give a final concentration of 1 μM and following vortex mixing fluorescence intensity was measured at room temperature in a SLM Aminco Series 2 Luminescence Spectrophotometer using excitation and emission wavelengths of 321 nm and 445 nm. A sigmoidal best fit analysis was applied to the fluorescence data and the pKa was measured as the pH giving rise to half-maximal fluorescence intensity.

| pKa [2] | Compound | Liver Luc @ 0.5 mg/kg (ng luc/g liver) [1] | Liver Luc (ng luc/g liver), dosed at 0.3 mg/kg ([1]; footnote *: dosed at 0.3 mg/kg) |
| --- | --- | --- | --- |
| 5.76 | CCCCCCCCC(CCCCCC)COC(=O)CCCCCC(CCCCCC(=O)OCC(CCCCCC)CCCCCCCC)NCCCCCC(=O)OCC(CCCC)CCCCCC (centres unmarked) [Compound 2] | 29 ± 4 ng luc/g liver |  |
| 6.5 | CCCCCCCCC(CCCCCC)COC(=O)CCCCCNCCN(CCCCCC(=O)OCC(CCCCCC)CCCCCCCC)CCCCCC(=O)OCC(CCCCCC)CCCCCCCC (centres unmarked) [Compound 3] | 33 ± 1 ng luc/g liver |  |
| 6.11 | CCCCCCCCC(CCCCCC)COC(=O)CCCCCC(CCCCCC(=O)OCC(CCCCCC)CCCCCCCC)NCCCCCC(=O)OCC(CC)CCCC (centres unmarked) [Compound 4] | 102 ± 42 ng luc/g liver |  |
| 6.39 | CCCCCCCCC(CCCCCC)COC(=O)CCCCCN(CCCCCC(=O)OCC(CCCCCC)CCCCCCCC)CCNCCCCCC(=O)OCC(CCCC)CCCCCC (centres unmarked) [Compound 1] |  | 1235 ± 345* ng luc/g liver |

Source: patent US11524932B2, “Lipids for use in lipid nanoparticle formulations” (ACUITAS THERAPEUTICS, INC., priority 2017, dated 2022)
